Measured values reported in patent publication US20250059171A1 (Hoffmann-La Roche Inc., priority 2021, published 2025).

How the values were obtained:
[1] = target: HCoV-229E 3CLpro (Human coronavirus 229E, UniProt P0C6X1); assay: HCoV-229E 3CLpro inhibition assay (FRET); assay type: biochemical
[2] = target: SARS-CoV-2 3CLpro (Severe acute respiratory syndrome coronavirus 2, UniProt P0DTD1); assay: biochemical
[3] = target: MERS-CoV 3CLpro (Middle East respiratory syndrome-related coronavirus, UniProt K9N7C7); assay: biochemical
[4] = target: SARS-CoV 3CLpro (Severe acute respiratory syndrome coronavirus, UniProt P0C6X7); assay: biochemical

Chain of MERS-CoV 3CLpro (K9N7C7 3248-3553): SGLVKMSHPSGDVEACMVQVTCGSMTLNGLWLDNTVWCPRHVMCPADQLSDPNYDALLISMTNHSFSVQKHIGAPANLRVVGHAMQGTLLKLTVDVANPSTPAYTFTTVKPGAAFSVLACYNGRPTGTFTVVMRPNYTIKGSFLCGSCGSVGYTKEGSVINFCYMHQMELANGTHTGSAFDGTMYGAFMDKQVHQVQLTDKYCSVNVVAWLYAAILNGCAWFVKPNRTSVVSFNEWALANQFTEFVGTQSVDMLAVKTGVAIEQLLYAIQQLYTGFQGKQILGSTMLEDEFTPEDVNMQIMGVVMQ
Chain of HCoV-229E 3CLpro (P0C6X1 2966-3267): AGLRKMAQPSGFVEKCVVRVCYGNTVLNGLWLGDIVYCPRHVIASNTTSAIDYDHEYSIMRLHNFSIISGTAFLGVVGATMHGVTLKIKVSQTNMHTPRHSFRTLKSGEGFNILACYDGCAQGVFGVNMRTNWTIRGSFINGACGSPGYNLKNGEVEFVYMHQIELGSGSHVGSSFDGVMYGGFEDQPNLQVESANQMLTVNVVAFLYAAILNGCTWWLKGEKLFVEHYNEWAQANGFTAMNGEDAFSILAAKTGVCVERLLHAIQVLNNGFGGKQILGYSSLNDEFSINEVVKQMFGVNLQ

Structure (SMILES)	IC50 [1] [nM]	IC50 [2] [nM]	IC50 [3] [nM]	IC50 [4] [nM]
CC(F)(F)C(=O)N[C@H](C(=O)N1C[C@H]2[C@@H]([C@H]1C(=O)NN(C[C@@H]1CCNC1=O)C(=O)[C@@H](F)Cl)C2(C)C)C(C)(C)C [Example 85, N-[(1S)-1-[(1R,2S,5S)-2-[[[(2S)-2-chloro-2-fluoro-acetyl]-[[(3S)-2-oxopyrrolidin-3-yl]methyl]amino]carbamoyl]-6,6-dimethyl-3-azabicyclo[3.1.0]hexane-3-carbonyl]-2,2-dimethyl-propyl]-2,2-difluoro-propanamide]	21	12	69	12
CC[C@H](C)[C@H](NC(=O)C1(C)CC1)C(=O)N1C[C@H]2[C@@H]([C@H]1C(=O)NN(C[C@@H]1CCNC1=O)C(=O)[C@H](F)Cl)C2(C)C [Example 60, N-[(1S,2S)-1-[(1R,2S,5S)-2-[[[(2R)-2-chloro-2-fluoro-acetyl]-[[(3S)-2-oxopyrrolidin-3-yl]methyl]amino]carbamoyl]-6,6-dimethyl-3-azabicyclo[3.1.0]hexane-3-carbonyl]-2-methyl-butyl]-1-methyl-cyclopropanecarboxamide]	19	10	47	9
CC(C)(C)[C@H](NC(=O)C12CC(C1)C2)C(=O)N1C[C@H]2[C@@H]([C@H]1C(=O)NN(C[C@@H]1CCNC1=O)C(=O)[C@H](F)Cl)C2(C)C [Example 15, N-[(1S)-1-[(1R,2S,5S)-2-[[[(2R)-2-chloro-2-fluoro-acetyl]-[[(3S)-2-oxopyrrolidin-3-yl]methyl]amino]carbamoyl]-6,6-dimethyl-3-azabicyclo[3.1.0]hexane-3-carbonyl]-2,2-dimethyl-propyl]bicyclo[1.1.1]pentane-1-carboxamide]	55	8	204	26
CC(C)(C)[C@H](NC(=O)C1(F)CC1)C(=O)N1C[C@@H]2CCC[C@@H]2[C@H]1C(=O)NN(C[C@@H]1CCNC1=O)C(=O)[C@H](F)Cl [Example 82, N-[(1S)-1-[(3S,3aS,6aR)-3-[[[(2R)-2-chloro-2-fluoro-acetyl]-[[(3S)-2-oxopyrrolidin-3-yl]methyl]amino]carbamoyl]-3,3a,4,5,6,6a-hexahydro-1H-cyclopenta[c]pyrrole-2-carbonyl]-2,2-dimethyl-propyl]-1-fluoro-cyclopropanecarboxamide]	33	8	84	12
CC[C@H](C)[C@H](NC(=O)C(F)F)C(=O)N1C[C@H]2[C@@H]([C@H]1C(=O)NN(C[C@@H]1CCCNC1=O)C(=O)[C@H](F)Cl)C2(C)C [Example 176, N-[(1S,2S)-1-[(1R,2S,5S)-2-[[[(2R)-2-chloro-2-fluoro-acetyl]-[[(3S)-2-oxo-3-piperidyl]methyl]amino]carbamoyl]-6,6-dimethyl-3-azabicyclo[3.1.0]hexane-3-carbonyl]-2-methyl-butyl]-2,2-difluoro-acetamide]	28	11	96	16
CC(C)(C)[C@H](Nc1ncncc1F)C(=O)N1C[C@@H]2CCC[C@@H]2[C@H]1C(=O)NN(C[C@@H]1CCNC1=O)C(=O)[C@H](F)Cl [Example 183]	59	11	174	16
CC1(C)[C@@H]2[C@@H](C(=O)NN(C[C@@H]3CCNC3=O)C(=O)[C@H](F)Cl)N(C(=O)[C@@H](NC(=O)C3(F)CC3)C3CCC3)C[C@@H]21 [Example 156, N-[(1S)-2-[(1R,2S,5S)-2-[[[(2R)-2-chloro-2-fluoro-acetyl]-[[(3S)-2-oxopyrrolidin-3-yl]methyl]amino]carbamoyl]-6,6-dimethyl-3-azabicyclo[3.1.0]hexan-3-yl]-1-cyclobutyl-2-oxo-ethyl]-1-fluoro-cyclopropanecarboxamide]	32	14	106	28
CC[C@H](C)[C@H](NC(=O)[C@@H](F)Cl)C(=O)N1C[C@H]2[C@@H]([C@H]1C(=O)NN(C[C@@H]1CCNC1=O)C(=O)[C@@H](F)Cl)C2(C)C [Example 186, (2S)-2-chloro-N-[(1S,2S)-1-[(1R,2S,5S)-2-[[[(2S)-2-chloro-2-fluoro-acetyl]-[[(3S)-2-oxopyrrolidin-3-yl]methyl]amino]carbamoyl]-6,6-dimethyl-3-azabicyclo[3.1.0]hexane-3-carbonyl]-2-methyl-butyl]-2-fluoro-acetamide]	49	13	69	23
CC(C)(C)[C@H](NC(=O)[C@@H]1CC1(F)F)C(=O)N1C[C@H](C(F)(F)F)C[C@H]1C(=O)NN(C[C@@H]1CCNC1=O)C(=O)[C@@H](F)Cl [Example 159, (1S)—N-[(1S)-1-[(2S,4R)-2-[[[(2S)-2-chloro-2-fluoro-acetyl]-[[(3S)-2-oxopyrrolidin-3-yl]methyl]amino]carbamoyl]-4-(trifluoromethyl)pyrrolidine-1-carbonyl]-2,2-dimethyl-propyl]-2,2-difluoro-cyclopropanecarboxamide]	40	13	103	13
CC(C)(C)[C@H](NC(=O)C(F)F)C(=O)N1C[C@H]2[C@@H]([C@H]1C(=O)NN(C[C@@H]1CCNC1=O)C(=O)[C@H](F)Cl)C2(C)C [Example 14, N-[(1S)-1-[(1R,2S,5S)-2-[[[(2R)-2-chloro-2-fluoro-acetyl]-[[(3S)-2-oxopyrrolidin-3-yl]methyl]amino]carbamoyl]-6,6-dimethyl-3-azabicyclo[3.1.0]hexane-3-carbonyl]-2,2-dimethyl-propyl]-2,2-difluoro-acetamide]	36	7	121	18
CC1(C)C[C@@H](C(=O)NN(C[C@@H]2CCNC2=O)C(=O)[C@H](F)Cl)N(C(=O)[C@@H](NC(=O)C2CC2)C(C)(C)C)C1 [Example 26, N-[(1S)-1-[(2S)-2-[[[(2R)-2-chloro-2-fluoro-acetyl]-[[(3S)-2-oxopyrrolidin-3-yl]methyl]amino]carbamoyl]-4,4-dimethyl-pyrrolidine-1-carbonyl]-2,2-dimethyl-propyl]cyclopropanecarboxamide]	28	12	98	21
CCC(CC)[C@H](NC(=O)C(C)F)C(=O)N1CC(C)(C)C[C@H]1C(=O)NN(C[C@@H]1CCNC1=O)C(=O)[C@H](F)Cl (mixture of isomers) [Example 137, Rac-2-fluoro-N-[(1S)-2-ethyl-1-[(2S)-4,4-dimethyl-2-[[[(2R)-2-chloro-2-fluoro-acetyl]-[[(3S)-2-oxopyrrolidin-3-yl]methyl]amino]carbamoyl]pyrrolidine-1-carbonyl]butyl]propanamide]	46	18	192	27
CC(C)(C)C[C@H](NC(=O)C(F)(F)F)C(=O)N1C[C@H]2[C@@H]([C@H]1C(=O)NN(C[C@@H]1CCNC1=O)C(=O)[C@H](F)Cl)C2(C)C [Example 66, N-[(1S)-1-[(1R,2S,5S)-2-[[[(2R)-2-chloro-2-fluoro-acetyl]-[[(3S)-2-oxopyrrolidin-3-yl]methyl]amino]carbamoyl]-6,6-dimethyl-3-azabicyclo[3.1.0]hexane-3-carbonyl]-3,3-dimethyl-butyl]-2,2,2-trifluoro-acetamide]	35	10	141	22
C[C@H]1C[C@@H](C(=O)NN(C[C@@H]2CCNC2=O)C(=O)[C@H](F)Cl)N(C(=O)[C@@H](NC(=O)C(F)(F)F)C(C)(C)C)C1 [Example 27, N-[(1S)-1-[(2S,4S)-2-[[[(2R)-2-chloro-2-fluoro-acetyl]-[[(3S)-2-oxopyrrolidin-3-yl]methyl]amino]carbamoyl]-4-methyl-pyrrolidine-1-carbonyl]-2,2-dimethyl-propyl]-2,2,2-trifluoro-acetamide]	29	29	136	20
CC[C@@H](C)[C@H](NC(=O)C(F)F)C(=O)N1C[C@H]2[C@@H]([C@H]1C(=O)NN(C[C@@H]1CCNC1=O)C(=O)[C@@H](F)Cl)C2(C)C [Example 120, N-[(1S,2R)-1-[(1R,2S,5S)-2-[[[(2S)-2-chloro-2-fluoro-acetyl]-[[(3S)-2-oxopyrrolidin-3-yl]methyl]amino]carbamoyl]-6,6-dimethyl-3-azabicyclo[3.1.0]hexane-3-carbonyl]-2-methyl-butyl]-2,2-difluoro-acetamide]	38	19	98	34
CC[C@H](C)[C@H](NC(=O)[C@H](F)Cl)C(=O)N1C[C@@H]2CCC[C@@H]2[C@H]1C(=O)NN(C[C@@H]1CCCNC1=O)C(=O)[C@H](F)Cl [Example 190, (2R)—N-[(1S,2S)-1-[(3S,3aS,6aR)-3-[[[(2R)-2-chloro-2-fluoro-acetyl]-[[(3S)-2-oxo-3-piperidyl]methyl]amino]carbamoyl]-3,3a,4,5,6,6a-hexahydro-1H-cyclopenta[c]pyrrole-2-carbonyl]-2-methyl-butyl]-2-chloro-2-fluoro-acetamide]	29	8	59	11
CC(C)(C)[C@H](NC(=O)C(F)(F)F)C(=O)N1C[C@@H]2CC[C@@H]2[C@H]1C(=O)NN(C[C@@H]1CCNC1=O)C(=O)[C@H](F)Cl [Example 5, N-[(1S)-1-[(1S,2S,5R)-2-[[[(2R)-2-chloro-2-fluoro-acetyl]-[[(3S)-2-oxopyrrolidin-3-yl]methyl]amino]carbamoyl]-3-azabicyclo[3.2.0]heptane-3-carbonyl]-2,2-dimethyl-propyl]-2,2,2-trifluoro-acetamide]	104	10	303	19
